From patent US8912184B1, “Therapeutic and diagnostic methods” (Alzheimer's Institute of America, Inc., priority 2010, dated 2014)

Legend:
HCT116 cells [1] = assay: 72 Hour HCT116 Cytotoxicity Assay (CellTiter-Glo); assay type: cell-based; settings: Homo sapiens, HCT-116, 72 h, 72 hours; read-out: HCT116 cell cytotoxicity IC50
Protocol: HCT116 cells were seeded in 96 well plates (Greiner Bio-One, Monroe, N.C.) and allowed to settle overnight. Test compound dissolved in dimethyl sulfoxide (DMSO) was added and drug incubation proceeded for 72 hours. […] After 72 hour, 50 μL of CellTiter-Glo Luminescent Cell Viability Assay reagent (Promega Corporation, Madison, Wis.) was added to cells in 200 μL of cellular media. After a proscribed incubation period, luminescence was measured using a TopCount NXT plate reader (PerkinElmer, Waltham, Mass.).

HCT-116 cell line = assay: cells; settings: Homo sapiens, HCT-116, 72 h, read-out: EC50 of NA rescue from Exemplary Compound A-induced cytotoxicity
Protocol: (§1) In the second method, cells were exposed to varying concentrations of NA in the presence of a fixed, toxic concentration of Nampt1 inhibitor. This allows determination of the relative effectiveness of NA at rescuing Nampt1 inhibitor-mediated cytotoxicity across cell lines. For this method, the following modifications were made to the standard cytotoxicity assay. Twenty four hours after cell were plated, a serial dilution of nicotinic acid, dissolved in water, was generated and added to the cells. […] Cell viability was then assessed at 72 h. Cell viability (after normalization to controls lacking Nampt1 inhibitor) was plotted against NA concentration.
(§2) In cases where the high asymptote of the NA rescue curve corresponded to 75% or less recovery in cell viability, the cell line was deemed to be partially rescued.
(§3) In the first set of experiments, two different cancer cell lines were employed.

MIA PaCa2 cell line = assay: cells; settings: Homo sapiens, MIA PaCa-2, 72 h, read-out: EC50 of NA rescue from Exemplary Compound A-induced cytotoxicity
Protocol: as §1, §2, §3

[2] = assay type: in vivo; settings: mice, oral NA 3 g/kg 1 h prior or up to 8 h following 300 mg/kg Exemplary Compound A
HCT116 cells [3] = assay: Nicotinic Acid Rescue Cytotoxicity Assay, first method: cytotoxicity to HCT116 cells in presence and absence of 10 μM nicotinic acid; assay type: cell-based; settings: Homo sapiens, HCT-116, 72 h
Protocol: Additionally, Nicotinic Acid (NA) rescue of cytotoxicity of Nampt inhibitors was assessed by two distinct methods. In the first method, Nampt1 inhibitor cytotoxicity was evaluated in the presence and absence of exogenous nicotinic acid (NA) at a fixed concentration. […] Twenty four hours after cells were plated, the media was removed and replaced with media containing 10 μM nicotinic acid. Compounds were then immediately added. Cell viability was then assessed at 72 h.
Using the first of the two assays described above, the 90 compounds shown in Table 5, below, were tested for cytotoxicity towards Naprt1-proficient HCT116 cells, and for the ability of NA to block the observed cytotoxicity (or “rescue” the cells from the cytotoxic activity of the tested compound). The compounds listed are referred to by a unique rescue analysis example number (i.e., R1, R2 . . . R90) that is used as a reference number in Table 4, in which the results of the cytotoxicity and rescue assays are presented.

[4] = absence of nicotinic acid, read-out: HCT116 72 h cytotoxicity
[5] = presence of 10 μM nicotinic acid, read-out: HCT116 72 h cytotoxicity with 10 μM Nicotinic Acid

Row | Structure (SMILES) | IC50 (HCT116 cells [3]; [4]) [nM] | IC50 (HCT116 cells [3]; [5]) [nM] | other results
1 | N#C/N=C(/NCc1ccc(COc2ccccc2-c2ccccc2)cc1)Nc1ccncc1 [Example 605, 1-{4-[(Biphenyl-2-yloxy)methyl]benzyl}-2-cyano-3-pyridin-4-ylguanidine] | – | – | IC50 (HCT116 cells [1]): ~1.1 nM
2 | O=C(NCc1cccnc1)Nc1ccc(COc2cc(C(F)(F)F)ccc2Cl)cc1 [Example 164, 1-(4-{[2-Chloro-5-(trifluorometh-yl)phenoxy]meth-yl}phenyl)-3-(pyridin-3-ylmethyl)urea] | – | – | IC50 (HCT116 cells [1]): ~74 nM
3 | O=C(O)c1cccnc1 [NA, nicotinic acid] | – | – | EC50 (HCT-116 cell line): 400 nM; EC50 (MIA PaCa2 cell line): > 10000 nM; effect of NA on Exemplary Compound A lethality [2]: completely blocked
4 | O=C(NCCCNS(=O)(=O)c1ccccc1-c1ccccc1)NCc1cccnc1 [Example 152, N-(3-{[(pyridin-3-ylmethyl)carbamoyl]a-mino}propyl)biphenyl-2-sulfonamide] | – | – | IC50 (HCT116 cells [1]): ~55 nM
5 | O=C(NCc1cccnc1)Nc1ccc(C[S+]([O-])c2ccccc2-c2ccccc2)cc1 (stereo not shown) [Example 210, 1-{4-[(biphenyl-2-ylsulfinyl)meth-yl]phenyl}-3-(pyridin-3-ylmethyl)urea] | – | – | IC50 (HCT116 cells [1]): ~39 nM
6 | O=C(NCc1cccnc1)Nc1ccc(NS(=O)(=O)c2cc(C(F)(F)F)ccc2-c2ccccc2)cc1 [Example R60, N-(4-{[(pyridin-3-ylmethyl)carbamoyl]amino}phenyl)-4-(trifluoromethyl)biphenyl-2-sulfonamide] | 3.7 | > 5000 | –
7 | O=C(NCc1cccnc1)Nc1ccc(NS(=O)(=O)c2ccccc2-c2ccccc2)cc1 [Example R49, N-(4-{[(Pyridin-3-ylmethyl)carbamoyl]amino}phenyl)biphenyl-2-sulfonamide] | 4.9 | > 10000 | –
8 | O=C(NCCCCCCOc1ccc(Cl)cc1)Nc1ccncc1 [Example R79, 1-[6-(4-Chlorophenoxy)hexyl]-3-pyridin-4-ylurea] | 88.9 | > 5000 | –
9 | O=C(NCc1cccnc1)c1ccc(OCc2ccccc2-c2ccccc2)cc1 [Example R23, 4-(Biphenyl-2-ylmethoxy)-N-(pyridin-3-ylmethyl)benzamide] | 539 | > 50000 | –
10 | CCOC(=O)c1c[nH]c2ccc(C(=O)Nc3ccc(C(=O)NCc4cccnc4)cc3)cc2c1=O [Example R53, ethyl 4-oxo-6-({4-[(pyridin-3-ylmethyl)carbamoyl]phenyl}carbamoyl)-1,4-dihydroquinoline-3-carboxylate] | 6.8 | > 10000 | –
11 | O=C(NCc1cccnc1)c1ccc(NCc2ccccc2-c2ccccc2)cc1 [Example R27, 4-[(Biphenyl-2-ylmethyl)amino]-N-(pyridin-3-ylmethyl)benzamide] | 87.1 | 37000 | –
12 | O=C(NCCCCCCOc1ccc(Cl)cc1)Nc1ccc(F)c(F)c1 [Example R41, 1-[6-(4-Chlorophenoxy)hexyl]-3-(3,4-difluorophenyl)urea] | 7080 | 6000 | –
13 | N#C/N=C(/NCCCCNC(=O)COc1ccccc1-c1ccccc1)Nc1ccncc1 [Example R78, 2-(Biphenyl-2-yloxy)-N-(4-{[(Z)-(cyanoamino)(pyridin-4-ylamino)methylidene]amino}butyl)acetamide] | 0.5 | > 5000 | –
14 | O=C(NCc1cccnc1)Nc1ccc(NC(=O)c2ccccc2-c2ccccc2)cc1 [Example R55, N-(4-{[(pyridin-3-ylmethyl)carbamoyl]amino}phenyl)biphenyl-2-carboxamide] | 48.8 | > 1000 | –
15 | N#C/N=C(/NCCCCCCOc1ccc(Cl)cc1)NCc1cccnc1 [Example R40, 1-[6-(4-Chlorophenoxy)hexyl]-2-cyano-3-(pyridin-3-ylmethyl)guanidine] | 1090 | > 10000 | –
16 | O=C(NCc1cccnc1)Nc1ccc(C2(Oc3ccccc3-c3ccccc3)CC2)cc1 [Example R87, 1-{4-[1-(Biphenyl-2-yloxy)cyclopropyl]phenyl}-3-(pyridin-3-ylmethyl)urea] | 1.1 | 3000 | –
17 | N#Cc1ccc(NC(=S)NCCCCCCOc2ccc(Cl)cc2)cc1 [Example R35, 1-[6-(4-Chlorophenoxy)hexyl]-3-(4-cyanophenyl)thiourea] | 1530 | 2000 | –
18 | N#C/N=C(/NCc1ccc(COc2ccccc2-c2ccccc2)cc1)Nc1ccncc1 [Example R70, 1-{4-[(biphenyl-2-yloxy)methyl]benzyl}-2-cyano-3-pyridin-4-ylguanidine] | 1.1 | > 5000 | –
19 | O=C(CN1CCc2ccccc21)Nc1ccc(C(=O)NCc2cccnc2)cc1 [Example R16, 4-[(2,3-Dihydro-1H-indol-1-ylacetyl)amino]-N-(pyridin-3-ylmethyl)benzamide] | 3290 | > 50000 | –
20 | O=C(CNCc1ccccc1Br)Nc1ccc(C(=O)NCc2cccnc2)cc1 [Example R18, 4-{[N-(2-Bromobenzyl)glycyl]amino}-N-(pyridin-3-ylmethyl)benzamide] | 6810 | > 50000 | –
21 | Cc1cc(S(=O)(=O)Nc2ccc(NC(=O)NCc3cccnc3)cc2)c(Cl)cc1Cl [Example R76, 2,4-dichloro-5-methyl-N-(4-{[(pyridin-3-ylmethyl)carbamoyl]amino}phenyl)benzene-sulfonamide] | 1.3 | > 5000 | –
22 | C#CCN(Cc1ccccc1C(F)(F)F)c1ccc(C(=O)NCc2cccnc2)cc1 [Example R10, 4-{Prop-2-yn-1-yl[2-(trifluoromethyl)benzyl]amino}-N-(pyridin-3-ylmethyl)benzamide] | 1110 | > 5000 | –
23 | N#C/N=C(\NCCCNS(=O)(=O)c1ccccc1-c1ccccc1)Nc1ccncc1 [Example R66, N-{3-[N″-cyano-N′-(pyridin-4-yl)carbamimidamido]propyl}biphenyl-2-sulfonamide] | 1.3 | 5000 | –
